Patent US20030232765A1, “Aryl urea compounds in combination with other cytostatic or cytotoxic agents for treating human cancers” (BAYER CORPORATION, priority 2001, published 2003)
Where a name gives a salt, the structure may show the parent alone. Read-outs that look alike come from different tables or passages of the source.

Tests used:
[1] = tested on: DLD-1 human colon tumor xenografts; experiment: Tumor xenograft experiment, established s.c. DLD-1 tumors, anti-tumor efficacy (Example 1); format: in vivo; conditions: Camptosar 40 mg/kg/dose i.p. q4d×3, Compound A 80 mg/kg/dose p.o. qd×9
Source text: (§1) Mice received food and water ad libitum.
(§2) These schedules are termed ‘Concurrent Therapy’.

[2] = Camptosar 40 mg/kg/dose i.p. q4d×3, Compound A 80 mg/kg/dose p.o. qd×9
Source text: (§3) Ncr nu/nu female mice (Taconic Farms, Germantown, N.Y.) were used for all in vivo studies invovling the DLD-1 and NCI-H460 tumor models. Female CB-17 SCID nice (Taconic Farms, Germantown, N.Y.) were used for studies involving the Mia-PaCa-2 tumor model. The mice were housed and maintained within the Comparative Medicine Department at Bayer Corporation, West Haven, Conn. in accordance with Bayer IACUC, State, and Federal guidelines for the humane treatment and care of laboratory animals. Mice received food and water ad libitum.
as §2
In the first study, Camptosar® was administered i.p at 40 mg/kg/dose.

[3] = Tolerability (body weight, mortality) in MiaPaCa-2 tumor-bearing mice (Example 2); format: in vivo; conditions: Gemzar 120 mg/kg/dose i.p. q4d×3; Compound A p.o. qd×9 (40 mg/kg/dose, 80 mg/kg dose level); alone or concurrent
Source text: as §1, §2

[4] = tested on: A549 human non-small cell lung tumor xenografts; experiment: Tumor xenograft experiment, established A549 tumors, anti-tumor efficacy (Example 5); format: in vivo; conditions: Iressa 150 mg/kg/dose p.o. qd×9, Compound A 80 mg/kg/dose p.o. qd×9; for percent tumor growth suppression (% TGS): alone or combined, endpoint time to one mass doubling
Protocol: (§4) The NCI-H460 cells were maintained and passaged in vitro using DMEM (GIBCO cat. # 11995-065: 500 mls) supplemented with 10% heat inactivated fetal bovine serum (JRH Biosciences cat.# 12106-500M), 2 mM L-glutamine (GIBCO cat. # 25030-81), 10 mM HEPES buffer (GIBCO cat # 15630-080) and penicillin-streptomycin (GIBCO cat. # 15140-122: 5 mls/[…]). The A549 cells were maintained and passaged using RPMI 1640 media (GIBCO cat.# 11875-085: 1000 ml) supplemented with 10% heat-inactivated fetal bovine serum (JRH Biosciences cat.# 12106-500M). All cells were maintained at 37° C. and 5% CO2 in a Fisher Scientific 610 CO2 incubator.
as §2

[5] = Iressa 150 mg/kg/dose p.o. qd×9; Compound A 80 mg/kg/dose p.o. qd×9; alone or combined; 10 mice per group
Source text: as §2

[6] = tested on: MX-1 mammary tumor xenografts; experiment: Tumor xenograft experiment, established MX-1 tumors, anti-tumor efficacy (Example 4); conditions: DOX 4 mg/kg/dose i.v. q4d×3; Compound A 40 mg/kg/dose p.o. qd×9; alone or combined; endpoint time to four mass doublings
Source text: The DLD-1 human colon carcinoma and the MiaPaCa-2 human pancreatic carcinoma were obtained from the American Type Tissue Culture Collection Repository. The MX-1 human mammary tumor was obtained from the NCI tumor repository. Tumors were maintained as a serial in vivo passage of s.c. fragments (3×3 mm) implanted in the flank using a 12 gauge trocar. A new generation of the passage was initiated every three or four weeks.
Female mice were implanted s.c. with DLD-1, MX-1 or Mia-PaCa-2 tumor fragments from an in vivo passage. […] The general health of mice was monitored and mortality was recorded daily. Tumor dimensions and body weights were recorded twice a week starting with the first day of treatment. […]
Tumor weights were calculated using the equation (l×w^2)/2, where l and w refer to the larger and smaller dimensions collected at each measurement. […] Anti-tumor efficacy was measured as the incidence of complete regressions (CR) defined as tumors that are reduced to below the limit of measurement (3 mm) in both length and width, partial regressions (PR) defined as tumors that are reduced by more than 50% but less than 100% of their initial size, and percent tumor growth suppression (% TGS). […]

[7] = tested on: MiaPaCa-2 human pancreatic tumor xenografts; experiment: Tumor xenograft experiment, established s.c. MiaPaCa-2 tumors, anti-tumor efficacy (Example 2); format: in vivo; conditions: Gemzar 120 mg/kg/dose i.p. q4d×3
Source text: as §1, §2

[8] = tested on: NCI-H460 human non-small cell lung tumor xenografts; experiment: Tumor xenograft experiment, established s.c. NCI-H460 tumors, anti-tumor efficacy (Example 3); format: in vivo; conditions: Ncr nu/nu mice; Navelbine 6.7 mg/kg/dose i.v. q4d×3; Compound A 40 mg/kg/dose p.o. qd×9; alone or combined; endpoint time to three mass doublings
Source text: as §3, §4, §2

in vivo = conditions: female, Ncr nu/nu, mouse, iv, 6.7 mg/kg/dose
Source text: as §3, §2

Structure (SMILES) | lethality ([2]; alone or concurrent) | lethality [3] | incidence of partial regressions (PR) ([4]; 10 mice per group) | percent tumor growth suppression (% TGS) [4] [%] | lethality [5] | percent tumor growth suppression (% TGS) [6] [%] | also measured
CCc1c2c(nc3ccc(OC(=O)N4CCC(N5CCCCC5)CC4)cc13)-c1cc3c(c(=O)n1C2)COC(=O)[C@]3(O)CC [Camptosar, Irinotecan] | no lethality |  |  |  |  |  | incidence of complete regressions (CR) ([1]; 10 mice per group): no complete or partial tumor regressions; incidence of partial regressions (PR) ([1]; 10 mice per group): no complete or partial tumor regressions; percent tumor growth suppression (% TGS) ([1]; Ncr nu/nu mice, alone or concurrent, endpoint time to three mass doublings): 71%; weight loss ([2]; alone or concurrent): minimal weight loss; tolerability ([2]; single agents): well tolerated
CNC(=O)c1cc(Oc2ccc(NC(=O)Nc3ccc(Cl)c(C(F)(F)F)c3)cc2)ccn1 [Compound A, N-(4-chloro-3-(trifluoromethyl)phenyl)-N′-(4-(2-(N-methylcarbamoyl)-4-pyridyloxy)phenyl)urea] | no lethality | no lethality | 2 | 218 | no weight loss or lethality | 46 | incidence of complete regressions (CR) ([4]; 10 mice per group): 1
COc1cccc2c1C(=O)c1c(O)c3c(c(O)c1C2=O)C[C@@](O)(C(=O)CO)C[C@@H]3O[C@H]1C[C@H](N)[C@H](O)[C@H](C)O1 [DOX, Doxorubicin HCl] |  |  |  |  |  | 43 | 
Nc1ccn([C@@H]2O[C@H](CO)[C@@H](O)C2(F)F)c(=O)n1 [Gemzar, Gemcitabine HCI] |  | no lethality |  |  |  |  | percent tumor growth suppression (% TGS) ([7]; CB-17 SCID mice, Compound A 40 mg/kg/dose p.o. qd×9, alone or concurrent, endpoint time to two mass doublings): 154%; incidence of complete regressions (CR) ([7]; 10 mice per group): no complete or partial tumor regressions; incidence of partial regressions (PR) ([7]; Compound A 40 mg/kg/dose p.o. qd×9, 10 mice per group): no complete or partial tumor regressions
COc1cc2ncnc(Nc3ccc(F)c(Cl)c3)c2cc1OCCCN1CCOCC1 [Iressa, 4-(3-chloro-4-fluoroanilino)7-methoxy-6-(3-morpholinopropoxy)quinazoline] |  |  | 1 | 101 | no lethality |  | 
CCC1=C[C@@H]2CN(C1)Cc1c([nH]c3ccccc13)[C@@](C(=O)OC)(c1cc3c(cc1OC)N(C)[C@H]1[C@@](O)(C(=O)OC)[C@H](OC(C)=O)[C@]4(CC)C=CCN5CC[C@]31[C@@H]54)C2 [Navelbine, 3′,4′-didehydro-4′deoxy-C-norvincaleukoblastine [R—(R,R)-2,3-dihydroxybutanedioate (1:2)(salt)]] |  |  |  |  |  |  | percent tumor growth suppression (% TGS) [8]: 32%; MTD at 9 days (in vivo): ~6.7 mg/kg
